The values that follow come from article PMC5671725, “Fluorinated Adenosine A2A Receptor Antagonists Inspired by Preladenant as Potential Cancer Immunotherapeutics” (International Journal of Medicinal Chemistry, 2017).

A short description of data set [1]: Log D7.4 shake-flask octanol-water. Format: physicochemical. The conditions noted are these: octanol / 10 mM sodium phosphate pH 7.4, read-out: logD7.4. On the procedure:
Determination of Physicochemical Properties […]
A shake-flask method was employed to determine octanol-water distribution coefficients at pH
7.4 (Log D7.4). The aqueous solution used was 10 mM sodium phosphate pH 7.4 buffer. The
method was validated for Log D7.4 ranging from -2 to 5.0. […]

The nature of data set [2]: Aqueous pH 7.4 solubility. Format: physicochemical. The settings on record: aqueous buffer, thermodynamic from solid; 0.1 M phosphate buffer pH 7.4, 25°C, 20-24 hours. On the procedure:
(§1) Determination of Physicochemical Properties
(§2) Aqueous pH 7.4 Solubility
(§3) Compounds were dried down from 10 mM DMSO solutions using centrifugal evaporation techniques. Phosphate buffer (0.1 M pH 7.4) was added and StirStix inserted in the glass vials.
Agitation was then performed at a constant temperature of 25°C for 20 -24 hours. The vials were then subjected to double centrifugation (with a tip wash in between) to eliminate any residues of the dried compound. The solutions were then diluted and quantitated using LC/MS/MS. […]

A short description of data set [3]: Human plasma protein binding (equilibrium dialysis, RED device). Format: in vitro ADME. The settings on record: pH 7.4, 10 µM initial concentration, 37°C, read-out: Human PPB (converted). Here is the method: Figure S1. Docking results of compounds 27-29 via Glide XP method. The H-bond interaction is represented as a pink arrow, pi-pi stacking as a green arrow. (A) Compound 27 docking pattern. (B) Compound 28 docking pose. (C) Compound 29 docking result. Pictures are rendered […]
as §1, §2, §3
Agitation was then performed at a constant temperature of 25°C for 20 -24 hours. The vials were then subjected to double centrifugation (with a tip wash in between) to eliminate any residues of the dried compound. The solutions were then diluted and quantitated using LC/MS/MS.
A shake-flask method was employed to determine octanol-water distribution coefficients at pH 7.4 (Log D7.4). The aqueous solution used was 10 mM sodium phosphate pH 7.4 buffer. The method was validated for Log D7.4 ranging from -2 to 5.0.
Human Plasma Protein Binding (PPB)
PPB was determined using equilibrium dialysis (RED device) to separate free from bound compound. The amount of compound in plasma (10 µM initial concentration) and in dialysis […]
(§4) buffer (pH 7.4 phosphate buffer) was measured by LC-MS/MS after equilibration at 37°C in a dialysis chamber. The fraction unbound (fu) is reported.
(§5) In vitro intrinsic clearance was determined from human liver microsomes or rat hepatocytes using standard methods. Following incubation and preparation, the samples were analyzed using […]
(§6) µl/min/mg or µl/min/1 million cells.
In general terms: In equilibrium dialysis free small molecules cross a membrane that holds back macromolecules.

A short description of data set [4]: Intrinsic clearance in human liver microsomes. Format: in vitro ADME. The conditions noted are these: read-out: HLM CLint. On the procedure: as §4, §5, §6
Data set [5] in a line: Intrinsic clearance in rat hepatocytes. Format: in vitro ADME. On the procedure: as §4, §5, §6
Data set [6] deals with T1, A2ARs (Mus musculus, UniProt Q60613).
T1 construct: from tissue; host or cells: whole animal, female C57BL/6 mice (in vivo)
As to the kind of experiment: Concanavalin A (ConA)-induced liver damage assay. Format: in vivo. The settings on record: female C57BL/6 mice, 2 mg kg^-1 compound then Con A 20 mg kg^-1, evaluated at 8 h. On the procedure: To select lead compounds for immunotherapy application, an in vivo Concanavalin A (ConA)-induced liver damage assay was carried out in C57BL/6 mice through the pharmacological activation and deactivation of A2ARs. A variety of compounds were screened including 2, 3, and 4 [10, 18, 19]. […] Fluorinated analogs were envisioned to potentially serve as leads to ultimately be labeled at the distal position with fluorine-18 (t1/2 = 109.8 min), for diagnostic imaging with positron emission tomography (PET). A series of fluorinated PEG groups with increasing chain lengths were proposed for chemical modification to map the structure-activity relationship (SAR). Such modifications increase both hydrophilicity and molecular weight (MW), potentially to reduce blood-brain barrier (BBB) penetration as predicted by the central nervous system multiparameter optimization (MPO) score reported by Wager et al..
Figure 2 ConA-induced liver damage in C57BL/6 mice via CGS (6), 2, 3 and 4. Female C57BL/6 mice (n = 5) were first injected with A2AR agonist CGS (6, 2 mg kg^−1), 2 mg kg^−1 2, 3, and 4 separately, and then Con A (20 mg kg^−1). Con A-induced liver damage evaluated at 8 h.

On the set-up of data set [7]: method as in PMID 24164628, PMID 25311639, PMID 25174927. The conditions noted are these: Parkinson's disease; cited from earlier work.
For data set [8], the target named is T2, A2AR (Mus musculus, UniProt Q60613). As to the kind of experiment: Cytokine release assay: IFN-gamma secretion by anti-CD3 activated splenocytes treated with CGS. Format: cell-based, C57BL/6 mice. On the set-up: endogenous in cells. The conditions noted are these: 0.1 µg/mL anti-CD3, 1 µM CGS plus 1 µM compound, one day, ELISA. On the procedure:
The second immunoassay assesses secretion of the cytokine IFN-gamma, since it is considered to be sensitive to the A2AR signaling pathway. In these assays, during T cell receptor (TCR) activation by the CD3 ligand, C57BL/6 mice splenocytes T cells are incubated with A2AR agonist CGS to inhibit IFN-gamma secretion resulting from A2AR-induced immunosuppression via intracellular cAMP. Effective A2AR antagonists block the A2AR-activated signal, thus restoring secretion of the cytokine to potentiate and prolong the immune response.
Figure 6 The IFN-gamma production by splenocytes after activation with 0.1 µg/mL anti-CD3 and when treated with vehicle, 1 µM CGS, and 1 µM CGS plus 1 µM compounds 29, 2 (KW-6002), 3 (KW-PEG), and 4 (preladenant) separately is shown. The IFN-gamma levels were determined in the supernatant one day following stimulation using quantitative ELISA and are expressed as pg/mL. Data shown represent mean ± SEM of triplicate samples.
(§7) Measuring functionality of A2AR antagonism by cAMP assay
Stimulation of intracellular cAMP production and measurement of cAMP levels were performed as described previously.[18b] […] Levels of cAMP were determined by ELISA (Amersham Biosciences, Buckinghamshire, UK). […]

In data set [9] the target is T2, A2AR. In words: Inhibition of A2AR-induced (CGS21680) intracellular cAMP accumulation in lymphocytes. Format: cell-based, C57/BL6 mice. Set-up: endogenous in cells; host or cells: primary lymphocytes from the spleen of C57/BL6 mice. The conditions noted are these: 1 µM CGS plus 1 μM compound, 15 min, cAMP ELISA. On the procedure: Bioassay of compounds 27–31 and 40 and their parent compounds (4 and 5a) was conducted using two functional assays that evaluate A2AR binding-dependent signaling through A2AR on the surface of T cells. The first assay screens compounds on the basis of their extent of inhibition of A2AR-induced intracellular cAMP accumulation in A2AR expressing lymphocytes. The A2AR agonist, CGS21680 (CGS, 6), was used to activate A2AR.
Figure 4 Intracellular cAMP levels in lymphocytes after incubation with vehicle, 1 µM CGS, and 1 µM CGS plus 1 μM of compounds 4 (preladenant), 27–31, 5a (tozadenant), 40, 2 (KW-6002), and 3 (KW-PEG) are shown. The intracellular cAMP levels were determined 15 min following stimulation using quantitative cAMP ELISA and are expressed as fmol/10^6 cells. Data shown represent mean ± SEM of triplicate samples.
as §7
Stimulation of intracellular cAMP production and measurement of cAMP levels were performed as described previously.[18b] Lymphocytes were isolated from the spleen of C57/BL6 mice and suspended at a concentration of 400,000 cells/well, and then treated with 1 µM CGS 21680 6 (A2AR-specific agonist; from Tocris, Ellisville, MO) with or without KW-6002 2, KW-PEG 3, preladenant 4, tozadenant 5a and their PEGylated analogs 27-31 and 40 (at a concentration of […]). The cells were incubated for 15 min at 37 °C , and the reaction was stopped by addition of 1 N hydrochloric acid. Levels of cAMP were determined by ELISA (Amersham Biosciences, Buckinghamshire, UK). All treatment groups were performed in triplicate. […]
(In general: Changes in cAMP serve as a functional read-out for many G protein-coupled receptors.)

The target of data set [10] is T2, A2AR. Set-up: endogenous in cells; method as in PMID 24126093. The settings on record: compared with xanthine 2; cited from earlier work.
Data set [11] concerns the target T2, A2AR. On the set-up: endogenous in cells; host or cells: primary lymphocytes from the spleen of C57/BL6 mice; method as in PMID 24126093. The conditions noted are these: compared with xanthine 2; cited from earlier work.
The subject of data set [12] is CL8-1 melanoma. On the set-up: method as in PMID 18163162, PMID 17404693, PMID 18404426, PMID 18311159, PMID 19201652. The settings on record: mice; cited from earlier work.

In general, solubility refers to the concentration that dissolves in the medium under given conditions. The low end stands for little dissolved substance, the high end for much dissolved substance.

≈ marks a conversion by molar mass, not a printed value.

T2 sequence (Q60613 whole entry): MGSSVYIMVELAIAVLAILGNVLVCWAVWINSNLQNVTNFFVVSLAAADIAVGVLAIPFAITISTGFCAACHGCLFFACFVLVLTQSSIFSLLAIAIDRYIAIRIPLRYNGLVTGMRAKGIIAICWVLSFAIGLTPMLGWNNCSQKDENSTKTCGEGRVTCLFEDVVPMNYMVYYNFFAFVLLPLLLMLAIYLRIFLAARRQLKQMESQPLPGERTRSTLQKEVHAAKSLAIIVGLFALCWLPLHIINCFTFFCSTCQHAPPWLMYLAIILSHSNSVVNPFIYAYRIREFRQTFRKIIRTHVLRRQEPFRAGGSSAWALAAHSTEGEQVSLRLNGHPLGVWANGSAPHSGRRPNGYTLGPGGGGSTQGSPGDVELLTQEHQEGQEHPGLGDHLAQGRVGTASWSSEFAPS
T1 sequence (Q60613 whole entry): as above

Regarding `Nc1nc2c(cnn2CCN2CCN(c3ccc(OCCOCCF)cc3)CC2)c2nc(-c3ccco3)nn12` [Compound 28], the logD in data set [1] stood at 2.5. The same compound registered a solubility in [2] of 2 µM (≈ 1.07 µg/mL). Also, in data set [3], the fraction unbound at 10 µM is 0.013. In addition, the microsomal CLint in [4] stood at 71.9 µL/min/mg. Also, the “Rat hepatocyte CLint” value in data set [5] was 12.8 μL/min/10^6.

Consider `COCCOc1ccc(N2CCN(CCn3ncc4c3nc(N)n3nc(-c5ccco5)nc43)CC2)cc1` [Compound 4, preladenant], for which, in data set [6], the ConA-induced liver damage entry was “most severe immune induced liver damage”. In data set [7], the “Efficacy in Phase III trials” value is on record as “failed to show efficacy”. Further, the “Restoration of IFN-gamma secretion” value in data set [8] is “superior restoration of IFN-gamma secretion compared to either 2 or 3”.

As to `Nc1nc2c(cnn2CCN2CCN(c3ccc(OCCF)cc3)CC2)c2nc(-c3ccco3)nn12` [Compound 27], the logD in [1] amounted to 2.8. In data set [2], this compound showed a solubility of 74 µM (≈ 36.4 µg/mL). Besides, the fraction unbound at 10 µM in data set [3] is 0.01. In addition, in [4], the microsomal CLint came out at 16.5 µL/min/mg. Besides, the “Rat hepatocyte CLint” value in data set [5] came to 29.9 μL/min/10^6.

Consider `COCCOCCOCCOCCOCCOCCOCCOCCOc1ccc(N2CCN(C(=O)Nc3nc4c(OC)ccc(N5CCOCC5)c4s3)CC2)cc1` [Compound 40], for which the “Antagonism of CGS-mediated intracellular cAMP accumulation” value (“Antagonism” below) in data set [9] is reported as “no suppression of intracellular cAMP accumulation”.

Consider `COCCOCCOCCOCCOCCOCCOCCOCCOc1ccc(N2CCN(CCn3ncc4c3nc(N)n3nc(-c5ccco5)nc43)CC2)cc1` [Compound 31], for which the “Antagonism” value in data set [9] is recorded as “decreased antagonism”.

Regarding `CCn1c(=O)c2c(nc(/C=C/c3ccc(C(=O)OCCOCCOCCOCCOCCOCCOCCOCCOC)c(OC)c3)n2C)n(CC)c1=O` [Compound 3], the “Cytokine IFN-gamma restoration” value in [10] was “enhanced properties”. Also, the cAMP suppression result in data set [11] is recorded as “enhanced properties”.

As to `Nc1nc2c(cnn2CCN2CCN(c3ccc(OCCOCCOCCF)cc3)CC2)c2nc(-c3ccco3)nn12` [Compound 29], the logD in data set [1] was 2.3. The compound also had a solubility in [2] of 10 µM (≈ 5.8 µg/mL). The fraction unbound at 10 µM in data set [3] is 0.017. For the same compound, the microsomal CLint in data set [4] turned out to be 66.1 µL/min/mg. Further, in data set [5], the “Rat hepatocyte CLint” value is 72.9 μL/min/10^6. The “Restoration of IFN-gamma secretion” value in [8] is on record as “superior restoration of IFN-gamma secretion compared to either 2 or 3”.

Regarding `COc1ccc(N2CCOCC2)c2sc(NC(=O)N3CCC(C)(O)CC3)nc12` [Compound 5a, tozadenant, reference compound], in data set [9], the “Antagonism” value is “inferior antagonism to that of compounds 2 and 3”.

On to `Nc1nc(NCCc2ccc(O)cc2)nc2nc(-c3ccco3)nn12` [Compound 1, ZM241385], for which, in data set [12], the “Growth of CL8-1 melanoma” value was “delayed growth of CL8-1 melanoma in mice” and the “Levels of endogenous antitumor T cells” value is “increased levels of endogenous antitumor T cells”.

With `Nc1nc2c(cnn2CCN2CCN(c3ccc(OCCOCCOCCOCCOCCOCCF)cc3)CC2)c2nc(-c3ccco3)nn12` [Compound 30], in data set [9], the “Antagonism” value is on record as “decreased antagonism”.
